Experimental data reported in ChEMBL document CHEMBL1201862, “PubChem BioAssay data set” (2004).
“And” between values parts separate entries of the source, which are not always exact repeats. Equal values may be shown once. Where a name gives a salt, the structure may show the parent alone.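 Values below derive from 48-hour exposures of cells grown in 96-well plates, with endpoints linearly interpolated between the two concentrations bracketing the appropriate inhibition level. GI50 marks 50% less growth.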 The source made the active and inactive calls. Rule as the data show it: active = GI50 up to about 1.1 µM and inactive = higher.

Assays:
Assay in all cases: inhibition of tumour cell growth, NCI panel, 48 h
COLO 205 = tested on: COLO 205
NCI-H522 = tested on: NCI-H522
IGROV-1 = tested on: IGROV-1
CCRF-CEM = tested on: CCRF-CEM
SNB-75 = tested on: SNB-75
Malme-3M = tested on: Malme-3M
SK-MEL-2 = tested on: SK-MEL-2
HCC 2998 = tested on: HCC 2998
KM-20L2 = tested on: KM-20L2
RPMI-8226 = tested on: RPMI-8226
SNB-78 = tested on: SNB-78
SNB-19 = tested on: SNB-19
LOX IMVI = tested on: LOX IMVI
SF-539 = tested on: SF-539
A549 = tested on: A549
SF-268 = tested on: SF-268
HCT-116 = tested on: HCT-116
HCT-15 = tested on: HCT-15
A498 = tested on: A498
SK-OV-3 = tested on: SK-OV-3

Compound	GI50 (COLO 205)	GI50 (NCI-H522)	GI50 (IGROV-1)	GI50 (CCRF-CEM)	GI50 (SNB-75)	GI50 (Malme-3M)	GI50 (SK-MEL-2)	GI50 (HCC 2998)	GI50 (KM-20L2)	GI50 (RPMI-8226)	GI50 (SNB-78)	GI50 (SNB-19)	GI50 (LOX IMVI)	GI50 (SF-539)	GI50 (A549)	GI50 (SF-268)	GI50 (HCT-116)	GI50 (HCT-15) [µM]	GI50 (A498)	GI50 (SK-OV-3)
CC1CC2C3CC(F)C4=CC(=O)C=CC4(C)C3(F)C(O)CC2(C)C1(O)C(=O)COC(=O)C(C)(C)C (stereo not given)	> 100 µM (inactive)	71 µM (inactive)	64.1 µM (inactive)	0.0203 µM (active)	82.2 µM (inactive)	> 100 µM (inactive)	> 100 µM (inactive)	> 100 µM (inactive)	> 100 µM (inactive)	44.4 µM (inactive)	27.5 µM (inactive)	64.3 µM (inactive)	> 100 µM (inactive)	87.5 µM (inactive)	54.6 µM (inactive)	64.4 µM (inactive)	> 100 µM (inactive)	> 100		
CC(=O)N/C(=C\c1ccc(/C=C(\NC(C)=O)C2=NC3C(=O)c4ccccc4C(=O)C3N2)cc1)C1=NC2C(=O)c3ccccc3C(=O)C2N1 (stereo not given)	93.1 µM (inactive)	7.69 µM (inactive)	8.47 µM (inactive)	0.865 µM (active)	6.98 µM (inactive)				39.7 µM (inactive)	5.05 µM (inactive)	70.3 µM (inactive)	19 µM (inactive)	6.92 µM (inactive)	76.7 µM (inactive)	2.34 µM (inactive)	5.7 µM (inactive)	14.4 µM (inactive)	9.14	5.57 µM (inactive)	6.53 µM (inactive)
O=C1c2ccccc2C(=O)c2c1ccc1c2N=C(c2ccc(F)cc2)CC(c2ccc(Cl)c(Cl)c2)N1 (stereo not given)	18.1 µM (inactive)	7.29 µM (inactive)	10.3 µM (inactive)	2.13 µM (inactive)	20.5 µM (inactive)		14 µM (inactive)	13.6 µM (inactive)	15.7 µM (inactive)	3.15 µM (inactive)	19.2 µM (inactive)	13.1 µM (inactive)	3.94 µM (inactive)	19.3 µM (inactive)	18.4 µM (inactive)	15.2 µM (inactive)	11.5 µM (inactive)	5.81	19.5 µM (inactive)	12.7 µM (inactive)
NC(=O)Nc1cc(O)ccc1/N=N/c1ccc(S(=O)(=O)Nc2ccccn2)cc1	> 100 µM (inactive)	> 100 µM (inactive)	> 100 µM (inactive)	> 100 µM (inactive)	> 100 µM (inactive)	> 100 µM (inactive)	> 100 µM (inactive)	> 100 µM (inactive)	> 100 µM (inactive)	> 100 µM (inactive)	> 100 µM (inactive)	> 100 µM (inactive)	> 100 µM (inactive)	> 100 µM (inactive)	> 100 µM (inactive)	> 100 µM (inactive)	> 100 µM (inactive)	> 100	> 100 µM (inactive)	> 100 µM (inactive)
CCC1OC(=O)C(C)C(OC2CC(C)(O)C(O)C(C)O2)C(C)C(O)C(C)(O)CC(C)C(=O)C(C)C(O)C1C (stereo not given)	> 300 µM (inactive)	> 300 µM (inactive)	> 300 µM (inactive)	> 300 µM (inactive)	> 300 µM (inactive)	> 300 µM (inactive)	> 300 µM (inactive)	> 300 µM (inactive)	> 300 µM (inactive)	> 300 µM (inactive)	204 µM (inactive)	> 300 µM (inactive)	> 300 µM (inactive)	> 300 µM (inactive)	> 300 µM (inactive)	> 300 µM (inactive)	> 300 µM (inactive)	> 300	> 267 µM (inactive)	> 300 µM (inactive)
CCC1C[N+]23CCc4c([nH]c5ccccc45)C2CC1CC3 (stereo not given)	98.4 µM (inactive)	55.1 µM (inactive)	91.6 µM (inactive)	51.2 µM (inactive)	98.9 µM (inactive)	33.7 µM (inactive)	> 100 µM (inactive)	> 100 µM (inactive)	97.1 µM (inactive)	38.8 µM (inactive)			68.1 µM (inactive)			> 100 µM (inactive)	> 100 µM (inactive)	68.2		> 100 µM (inactive)
COC(=O)C1=CC[C@@H]2C(C(=O)O)=CO[C@@H](OC3OC(CO)C(O)C(O)C3O)[C@H]12 (stereo not given in full)	> 300 µM (inactive)	> 300 µM (inactive)	> 300 µM (inactive)	> 119 µM (inactive)	> 300 µM (inactive)	> 263 µM (inactive)	> 300 µM (inactive)	> 110 µM (inactive)	> 300 µM (inactive)	> 300 µM (inactive)	> 142 µM (inactive)	> 300 µM (inactive)	> 300 µM (inactive)	> 300 µM (inactive)	> 300 µM (inactive)	> 300 µM (inactive)	> 300 µM (inactive)	> 300	> 30 µM (inactive)	> 300 µM (inactive)
Nc1ccc2cc3ccc(N)cc3nc2c1 [PROFLAVINE SULFATE]	561 nM (active) and 543 nM (active)			508 nM (active) and 601 nM (active)	1.59 µM (inactive) and 1.16 µM (inactive)			794 nM (active) and 1.09 µM (active)	0.767 µM (active)	1.58 µM (inactive) and 1.43 µM (inactive)	1.12 µM (active)		789 nM (active) and 764 nM (active)	1.26 µM (inactive) and 1.16 µM (inactive)		1.32 µM (inactive) and 2.19 µM (inactive)	366 nM (active) and 405 nM (active)			
